# Reference: US20070255041A1, “Bioengineered Vehicles for Targeted Nucleic Acid Delivery” (priority 2000, published 2007)
# B1: C6.5-H1: C6.5 sFv′ conjugated to the human histone H1 peptide (conjugate)
# scFv: QVQLLQSGAELKKPGESLKISCKGSGYSFTSYWIAWVRQMPGKGLEYMGLIYPGDSDTKYSPSFQGQVTISVDKSVSTAYLQWSSLKPSDSAVYFCARHDVGYCSSSNCAKWPEYFQHWGQGTLVTVSSGGGGSGGGGSGGGGSQSVLTQPPSVSAAPGQKVTISCSGSSSNIGNNYVSWYQQLPGTAPKLLIYGHTNRPAGVPDRFSGSKSGTSASLAISGFRSEDEADYYCAAWDDSLSGWVFGGGTKLTVLGHHHHHHGGGGC
# peptide: AKKAKSPKKAKAAKPKKAPKSPAKAK
# Columns and labels:
# [1] = tested on: 3T3 cells (c-erbB-2 non-expressing); test: Transfection of 3T3 cells with pXL3031 luciferase plasmid; format: cell-based; details: 10% serum, mean of three measures
# Description: (§1) Transfections were done using C6.5-H1, C6ML3-9 sFv′-H1, C6ML3-9 sFv′-P1 (comprising C6ML3-9 coupled to human protamine P1 peptide) and C6ML3-9 sFv′-salmon protamine (C6ML3-9-SP). Conjugates were mixed in […] with pXL3031 (pCOR Luc^+) reporter plasmid at different ratios and, after a 10 minute incubation, used to transfect c-erbB-2 expressing (3T3-HER2) or non-expressing (3T3) cell lines. Transfection were performed in the presence of 10% fetal calf serum (FCS) for 3T3-HER2, or 10% calf serum (CS) for 3T3. After 24 hours of incubation, cells were washed twice with PBS and lysed with 200 μl of cell culture lysis reagent (Promega). Luciferase expression was quantified using a luciferase assay kit (Promega) and a Lumat LB9501 luminometer (EG and G). Light emission (RLU) was normalized to the protein concentration of each sample, measured using the Pierce BCA assay. Conditions of transfection are summarized below for each experiment.
# (§2) All transfections were done in the presence of 10% serum. Best transfection conditions are indicated for each compound. All complexes with sFv′ conjugates were formed in 20 mM NaCl, and all complexes with RPR120535 were formed in 20 mM NaHCO3150 mM NaCl. Values correspond to the mean of three different measures of the same assay.
# [2] = tested on: 3T3-HER2 cells (c-erbB-2 expressing); test: Transfection of 3T3-HER2 cells with pXL3031 luciferase plasmid; format: cell-based; details: for RLU/μg of cell proteins: 10% serum, mean of three measures
# Description: as §1, §2
# [3] = tested on: plasmid DNA (pGL-control or pXL3031); test: Gel mobility shift analysis of complex formation with plasmid DNA; format: binding; details: 5.8 pmole (360 ng) conjugate; FIG. 18
# Description: The ability of the anti-erbB-2 C6ML3-9 sFv′-salmone protamine (SP) conjugates to complex with plasmid DNA was tested by a gel mobility shift analysis.
# The DNA was added last, and the mixture incubated on ice for 1 to 1.5 hour (in the case of kinetics studies, incubation time was from 5 minutes to 60 minutes as indicated). 2 μl of loading buffer (50% glycerol in 1×TE with dye) was added to the 20 μl reaction. The reaction was electrophoresed on 0.8% agarose gel in 1×TAE, 150 V for about an hour at room temperature and stained with EtBr overnight.
# [4] = tested on: SK-OV-3 cells; test: Luciferase reporter gene delivery to erbB-2 positive cells; format: cell-based, human
# Description: Gene delivery experiments were carried out with the anti-erbB-2 sFv′-[salmon protamine]-DNA complex (C6.5 sFv′-SP-DNA or C6ML3-9 sFv′-SP-DNA). The reporter DNA plasmid was the pGL3-control from Promega, which encodes the luciferase gene under control of the SV40 early promoter and enhancers. The erbB-2 positive cell line used in the study was SK-OV-3, a human ovarian cancer cell line. 200 ng of pGL3 reporter plasmid DNA was incubated with increasing amounts of either the sFv′-[salmon protamine] conjugates (sFv′-SP), or the sFv′ mixed with salmon protamine (SP) alone as described. Formation of the protein-DNA complex was confirmed by gel mobility shift analysis (data not shown). The mixture of protein and DNA were then incubated with SK-OV-3 cells in the absence or presence of 100 μM chloroquine. The protein-DNA mixture was removed from the cell culture after a 20 hour incubation. Cells were harvested for luciferase assays at about 40 hours post-incubation using a Dynex MLX Luminometer. The experiment data presented are an averaged data from quadruplet samples of a typical experiment.
# [5] = tested on: MCF-7 cells; test: Luciferase reporter gene delivery to erbB-2 negative control cells; format: cell-based; details: FIG. 19
# [6] = tested on: SK-OV-3 cells; test: pGeneGrip Rhodamine/GFP plasmid delivery, fluorescent microscopy, erbB-2 positive cells; format: cell-based, human; details: SK-OV-3, at 48 hours
# Text: pGeneGrip Rhodamine/GFP plasmid (Gene Therapy Systems) was used as another reporter plasmid for studying C6.5 sFv′-SP and C6ML3-9 sFv′-SP-mediated gene delivery. In this case, plasmid DNA encoding green fluorescent protein (GFP) was labeled with rhodamine, which allows one to follow internalization of the plasmid DNA as well as the expression of GFP. This reporter facilitated evaluation of the gene delivery efficiency at both DNA and protein expression levels. […] SK-OV-3 and MCF-7 cells were incubated with the protein/DNA complexes and fixed at 6, 24, 48, and 72 hours post-incubation for fluorescent microscopy. FIG. 21 represents the data from the 48 hour time point. […] The rhodamine labeled DNA could be seen inside of SK-OV-3 cells at 24 hours (data not shown). However, the GFP gene expression, was very low, about 1-2% cells being GFP positive in the case of C6ML3-9 sFv′-SP-mediated delivery at 48 hours. It should be noted that, although low, GFP expression level still correlates with the amount of DNA inside of the cells (FIG. 21, compare C6.5 sFv′-SP-DNA with that C6ML3-9 sFv′-SP-DNA). […] The low expression of GFP may be caused by the difficulty of plasmid DNA either escaping from the endosomes or reaching the nucleus.
# [7] = 3T3-HER2, 7 μg/μg of DNA, no chloroquine
molecule,measurement,setting,value
"CCCCCCCCCCCCCCCCCCN(CCCCCCCCCCCCCCCCCC)C(=O)CNC(=O)CNCCCNCCCCNCCCN [RPR120535, reference compound]",RLU/μg of cell proteins,"[1]; 6 nmoles/μg of DNA, no chloroquine",26100000 RLU/μg of cell proteins
same,RLU/μg of cell proteins,"[2]; 3T3-HER2, 6 nmoles/μg of DNA, no chloroquine",2980000 RLU/μg of cell proteins
C6ML3-9 sFv′-H1: C6ML3-9 sFv′ reacted with maleimide-H1 peptide (residues 166 to 192 of human histone H1),RLU/μg of cell proteins,"[1]; 7 μg/μg of DNA, no chloroquine",0 (±0) RLU/μg of cell proteins
same,RLU/μg of cell proteins,[2]; [7],27400 (±6030) RLU/μg of cell proteins
same,increase in transfection efficiency,"[2]; 3T3-HER2, increasing conjugate to DNA mass ratio from 4 to 10, FIG. 26",10 fold
same,transfection activity on addition of free C6ML3-9 sFv′ or C6ML3-9 sFv′-H1 complexed to pBks plasmid,"[2]; competition, specificity of gene transfer, FIG. 25",could be reduced
C6ML3-9 sFv′-P1: C6ML3-9 coupled to human protamine P1 peptide (residues 11 to 28),RLU/μg of cell proteins,"[1]; 6 μg/μg of DNA, 150 μM chloroquine",9 (±15) RLU/μg of cell proteins
same,RLU/μg of cell proteins,"[2]; 3T3-HER2, 6 μg/μg of DNA, 150 μM chloroquine",10024 (±3757) RLU/μg of cell proteins
C6ML3-9 sFv′-SP: C6ML3-9 sFv′ coupled via Sulfo-SMCC at its C-terminal sulfhydryl to salmon protamine,time in which the conjugate-DNA complex could form,[3],5 min
same,luciferase gene delivery to SK-OV-3 cells,"[4]; 200 ng pGL3-control plasmid, 20 hour incubation, luciferase assay about 40 hours post-incubation, FIG. 19",delivered luciferase reporter plasmids into SK-OV-3 cells
same,chloroquine dependence of luciferase gene delivery to SK-OV-3 cells,"[4]; absence or presence of 100 μM chloroquine, FIG. 20",chloroquine-dependent
same,luciferase gene delivery to SK-OV-3 cells after pre-incubating the cells with free C6ML3-9 sFv′,"[4]; competition, data not shown",could be competed away
same,luciferase activity in MCF-7 cells (erbB-2 negative control),[5],minimal luciferase activity
same,cells being GFP positive (GFP gene expression),[6],1-2%
same,RLU/μg of cell proteins,"[1]; 4 μg/μg of DNA, 200 μM chloroquine",1080 (±715) RLU/μg of cell proteins
same,RLU/μg of cell proteins,"[2]; 3T3-HER2, 4 μg/μg of DNA, 200 μM chloroquine",220000 (±20000) RLU/μg of cell proteins
B1,RLU/μg of cell proteins,"[1]; 7 μg/μg of DNA, no chloroquine",6 (±7) RLU/μg of cell proteins
same,RLU/μg of cell proteins,[2]; [7],659 (±240) RLU/μg of cell proteins
